From patent publication US20260250325A1, “Antiviral Polypeptide Membrane Fusion Inhibitor, and Preparation Method and Application Thereof” (priority 2025, published 2026)
Where a SMILES comes first, the peptide text is derived from it. The star is where a group is joined. Succinyl(4-O-cholesteryl) = CC(C)CCC[C@@H](C)[C@H]1CC[C@H]2[C@@H]3CC=C4C[C@@H](OC(=O)CCC(=O)*)CC[C@]4(C)[C@H]3CC[C@]12C

What was measured:
[1] = Cytotoxicity test in HEp-2 cells (CCK8 cell viability); assay type: cell-based; conditions: human; HEp-2 cells, CCK8, 1 day; read-out: CC50
Procedure, shortened: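 HEp-2 cells seeded at 30,000/well, cultured overnight at 37° C./5% CO2, then exposed to diluted compound for 1 day in 0.5% DMSO. Viability read by CCK8, normalised to untreated-cell and medium-only controls; CC50 from four-parameter variable-slope fit.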

hPIV3 C243 virus strain = assay type: cell-based, hPIV; conditions: LLC-MK2 cells, hPIV3 C243, plaque reduction; read-out: EC50 against hPIV3 virus
Experimental: Rhesus monkey kidney cells (LLC-MK2) were sourced from the ATCC, with a catalog number CCL-7.1. The cells were cultured in a DMEM culture solution in which 10% fetal bovine serum, 1% non-essential amino acids, 1% sodium pyruvate, 1% L-glutamine, 100 U/ml penicillin, and 100 μg/ml streptomycin were added.
An HPIV-3 plaque experiment culture medium consisted of a DMEM culture solution added with 2% fetal bovine serum, 1% non-essential amino acids, 1% sodium pyruvate, 1% L-glutamine, 100 U/ml penicillin, and 100 μg/ml streptomycin.
The hPIV Type 3 (hPIV3 C243) was sourced from the ATCC, with a catalog number VR-93.
This study used the plaque reduction experiment to detect the in-vitro activity of the test sample against the hPIV3 C243 virus strain, and Human Anti-HPIV3 Monoclonal Antibody, clone PIA174 was an experimental system control. The test sample and a system experimental antibody were tested at 8 concentrations in duplicated wells.
The LLC-MK2 cells were digested with trypsin and then diluted to a concentration of 400,000 cells per milliliter by using a cell culture solution containing 2% serum. The diluted cells were added to a 96-well cell test board, with 100 μL per well, corresponding to 40,000 cells per well. The cells were cultured overnight in a 37° C. incubator with 5% CO2.
On the next day, the sample diluted at a fold ratio and an equal volume of virus (approximately 200 PFU per well) were well mixed and incubated at 37° C. in 5% CO2 for 1 hour. Then, the culture solution in the 96-well cell test board was discarded, the sample virus mixed solution (100 μL) was added to the 96-well cell culture plate, and incubated at 37° C. in 5% CO2 for 2 hours. After 2 h, the sample virus mixed solution was discarded, 200 μL of an experiment culture medium containing the test sample with a corresponding concentration was added, and the culture solution contained 0.8% CMC. A final concentration of DMSO in the culture solution was 0.5%. A control antibody was directly added to the experiment culture solution containing 0.8% CMC. A cell control (cells, without compound treatment or viral infection) and a viral control (cell infection virus, without compound treatment) were set. The cells were cultured for 1 day in the 37° C. incubator with 5% CO2.
The cells were fixed with 4% paraformaldehyde, and then permeabilization was performed with 0.5% Triton X-100. After the plate was washed with DPBS, a hPIV specific antibody (1:2000 dilution) was added and incubated at 37° C. for 1.5 h. Then, a secondary antibody (1:500 dilution) was added and incubated at 37° C. for 1 hour. The secondary antibody was discarded, a TrueBlue solution was added, dyeing was performed for approximately 10 minutes; and the plate was washed with running water and then air-dried, and the number of spots in each well was counted by using a microplate imaging counter.
Raw data was used for calculating the antiviral activity of the samples, and a calculation formula was shown as follows.
% inhibition rate=100−(sample value-cell control average value)/(virus control average value-cell control average value)×100
Non-linear fitting analysis was performed on the inhibition rate of the sample by using GraphPad Prism (version 10), so as to calculate an EC50 value for the sample. A fitting formula was log (inhibitor) vs. response-Variable slope (four parameters).

Compound	CC50 at 1 day [1] [nM]	EC50 (hPIV3 C243 virus strain) [nM]
CC[C@H](C)[C@H](NC(=O)[C@H](CCCCN)NC(=O)[C@H](CCCCN)NC(=O)[C@H](CC(C)C)NC(=O)[C@H](CO)NC(=O)[C@H](CCC(N)=O)NC(=O)[C@H](CC(N)=O)NC(=O)[C@@H](NC(=O)[C@H](CCCCN)NC(=O)[C@H](CCCCN)NC(=O)[C@H](CC(=O)O)NC(=O)[C@H](Cc1ccccc1)NC(=O)[C@H](CCC(=O)O)NC(=O)[C@@H](NC(=O)[C@H](CCCCN)NC(=O)[C@H](CCCCN)NC(=O)[C@H](CC(N)=O)NC(=O)[C@@H](NC(=O)[C@H](CC(C)C)NC(=O)[C@H](CCC(=O)O)NC(=O)[C@H](CC(=O)O)NC(=O)[C@H](CO)NC(C)=O)C(C)C)[C@@H](C)CC)[C@@H](C)CC)C(=O)N[C@@H](CCC(=O)O)C(=O)N[C@@H](CCC(=O)O)C(=O)N[C@@H](CO)C(=O)N[C@@H](CC(=O)O)C(=O)N[C@@H](CCCCN)C(=O)N[C@@H](CCCCN)C(=O)N[C@@H](CCCCN)C(=O)N[C@@H](CC(C)C)C(=O)N[C@@H](CCC(=O)O)C(=O)N[C@@H](C)C(=O)N[C@@H](C)C(=O)N[C@@H](C)C(=O)N[C@@H](CCCCN)C(=O)N[C@@H](CCCCN)C(N)=O [Compound 51] (Ac-SDELVNKKIEFDKKINQSLKKIEESDKKKLEAAAKK-NH2)	3200	18.8
CC[C@H](C)[C@H](NC(=O)[C@H](CO)NC(=O)[C@H](C)NC(=O)[C@H](CC(=O)O)NC(=O)[C@H](Cc1ccccc1)NC(=O)[C@H](CCC(=O)O)NC(=O)[C@H](CC(=O)O)NC(=O)[C@H](Cc1c[nH]c2ccccc12)NC(C)=O)C(=O)N[C@@H](CO)C(=O)N[C@@H](CCC(N)=O)C(=O)N[C@H](C(=O)N[C@@H](CC(N)=O)C(=O)N[C@@H](CCC(=O)O)C(=O)N[C@@H](CCCCN)C(=O)N[C@H](C(=O)N[C@@H](CC(N)=O)C(=O)N[C@@H](CCC(N)=O)C(=O)N[C@@H](CO)C(=O)N[C@@H](CC(C)C)C(=O)N[C@@H](CCC(=O)O)C(=O)N[C@@H](CCC(=O)O)C(=O)N[C@H](C(=O)N[C@@H](CCCNC(=N)N)C(=O)N[C@@H](CCCCN)C(=O)N[C@@H](CO)C(=O)N[C@@H](CC(=O)O)C(=O)N[C@@H](CCC(=O)O)C(=O)N[C@@H](CC(C)C)C(=O)N[C@@H](CC(C)C)C(=O)N[C@@H](Cc1c[nH]cn1)C(=O)N[C@@H](CC(N)=O)C(=O)N[C@@H](CCC(=O)O)C(=O)N[C@@H](C)C(=O)N[C@@H](C)C(=O)N[C@@H](C)C(=O)N[C@@H](CCCCN)C(=O)N[C@@H](CCCCNC(=O)CCC(=O)O[C@H]1CC[C@@]2(C)C(=CC[C@H]3[C@@H]4CC[C@H]([C@H](C)CCCC(C)C)[C@@]4(C)CC[C@@H]32)C1)C(N)=O)[C@@H](C)CC)[C@@H](C)CC)C(C)C [Compound 45] (Ac-WDEFDASISQVNEKINQSLEEIRKSDELLHNEAAAKK(Succinyl(4-O-cholesteryl))-NH2)	9940	36.3
CC[C@H](C)[C@H](NC(=O)[C@H](CCCCN)NC(=O)[C@H](CCCCN)NC(=O)[C@H](CC(C)C)NC(=O)[C@H](CO)NC(=O)[C@H](CCC(=O)O)NC(=O)[C@H](CCC(=O)O)NC(=O)[C@@H](NC(=O)[C@H](CCCCN)NC(=O)[C@H](CCCCN)NC(=O)[C@H](CC(N)=O)NC(=O)[C@@H](NC(=O)[C@H](CCC(=O)O)NC(=O)[C@H](CCC(=O)O)NC(=O)[C@@H](NC(=O)[C@H](CCCCN)NC(=O)[C@H](CCCCN)NC(=O)[C@H](CC(=O)O)NC(=O)[C@H](Cc1ccccc1)NC(=O)[C@H](CCC(=O)O)NC(=O)[C@H](CC(=O)O)NC(=O)[C@H](CO)NC(C)=O)[C@@H](C)CC)C(C)C)[C@@H](C)CC)C(=O)N[C@@H](CCC(=O)O)C(=O)N[C@@H](CCC(=O)O)C(=O)N[C@@H](CO)C(=O)N[C@@H](CC(=O)O)C(=O)N[C@@H](CCCCN)C(=O)N[C@@H](CCCCN)C(=O)N[C@@H](CC(C)C)C(=O)N[C@@H](CCC(=O)O)C(=O)N[C@@H](C)C(=O)N[C@@H](C)C(=O)N[C@@H](C)C(=O)N[C@@H](CCCCN)C(=O)N[C@@H](CCCCNC(=O)CCC(=O)O[C@H]1CC[C@@]2(C)C(=CC[C@H]3[C@@H]4CC[C@H]([C@H](C)CCCC(C)C)[C@@]4(C)CC[C@@H]32)C1)C(N)=O [Compound 16] (Ac-SDEFDKKIEEVNKKIEESLKKIEESDKKLEAAAKK(Succinyl(4-O-cholesteryl))-NH2)	17100	59
CC[C@H](C)[C@H](NC(=O)[C@H](CCCCN)NC(=O)[C@H](CCCCN)NC(=O)[C@H](CC(C)C)NC(=O)[C@H](CO)NC(=O)[C@H](CCC(=O)O)NC(=O)[C@H](CCC(=O)O)NC(=O)[C@@H](NC(=O)[C@H](CCCCN)NC(=O)[C@H](CCCCN)NC(=O)[C@H](CC(N)=O)NC(=O)[C@@H](NC(=O)[C@H](CCC(=O)O)NC(=O)[C@H](CCC(=O)O)NC(=O)[C@@H](NC(=O)[C@H](CCCCN)NC(=O)[C@H](CCCCN)NC(=O)[C@H](CC(=O)O)NC(=O)[C@H](Cc1ccccc1)NC(=O)[C@H](CCC(=O)O)NC(=O)[C@H](CC(=O)O)NC(=O)[C@H](Cc1c[nH]c2ccccc12)NC(C)=O)[C@@H](C)CC)C(C)C)[C@@H](C)CC)C(=O)N[C@@H](CCC(=O)O)C(=O)N[C@@H](CCC(=O)O)C(=O)N[C@@H](CO)C(=O)N[C@@H](CC(=O)O)C(=O)N[C@@H](CCCCN)C(=O)N[C@@H](CCCCN)C(=O)N[C@@H](CC(C)C)C(=O)N[C@@H](CCC(=O)O)C(=O)N[C@@H](CCC(=O)O)C(=O)N[C@H](C(=O)N[C@@H](CC(N)=O)C(=O)N[C@@H](CCC(=O)O)C(=O)N[C@@H](C)C(=O)N[C@@H](C)C(=O)N[C@@H](C)C(=O)N[C@@H](CCCCN)C(=O)N[C@@H](CCCCNC(=O)CCC(=O)O[C@H]1CC[C@@]2(C)C(=CC[C@H]3[C@@H]4CC[C@H]([C@H](C)CCCC(C)C)[C@@]4(C)CC[C@@H]32)C1)C(N)=O)C(C)C [Compound 41] (Ac-WDEFDKKIEEVNKKIEESLKKIEESDKKLEEVNEAAAKK(Succinyl(4-O-cholesteryl))-NH2)	17000	71.1
CC[C@H](C)[C@H](NC(=O)[C@H](CO)NC(=O)[C@H](C)NC(=O)[C@H](CC(=O)O)NC(=O)[C@H](Cc1ccccc1)NC(=O)[C@H](CCC(=O)O)NC(=O)[C@H](CC(=O)O)NC(=O)[C@H](Cc1c[nH]c2ccccc12)NC(C)=O)C(=O)N[C@@H](CCC(=O)O)C(=O)N[C@@H](CCC(=O)O)C(=O)N[C@H](C(=O)N[C@@H](CC(N)=O)C(=O)N[C@@H](CCCNC(=N)N)C(=O)N[C@@H](CCCNC(=N)N)C(=O)N[C@H](C(=O)N[C@@H](CCC(=O)O)C(=O)N[C@@H](CCC(=O)O)C(=O)N[C@@H](CO)C(=O)N[C@@H](CC(C)C)C(=O)N[C@@H](CCCNC(=N)N)C(=O)N[C@@H](CCCNC(=N)N)C(=O)N[C@H](C(=O)N[C@@H](CCC(=O)O)C(=O)N[C@@H](CCC(=O)O)C(=O)N[C@@H](CO)C(=O)N[C@@H](CC(=O)O)C(=O)N[C@@H](CCCNC(=N)N)C(=O)N[C@@H](CCCNC(=N)N)C(=O)N[C@@H](CC(C)C)C(=O)N[C@@H](CCC(=O)O)C(=O)N[C@@H](CCC(=O)O)C(=O)N[C@H](C(=O)N[C@@H](CCC(=O)O)C(=O)N[C@@H](C)C(=O)N[C@@H](C)C(=O)N[C@@H](C)C(=O)N[C@@H](CCCCN)C(=O)N[C@@H](CCCCNC(=O)CCC(=O)O[C@H]1CC[C@@]2(C)C(=CC[C@H]3[C@@H]4CC[C@H]([C@H](C)CCCC(C)C)[C@@]4(C)CC[C@@H]32)C1)C(N)=O)C(C)C)[C@@H](C)CC)[C@@H](C)CC)C(C)C [Compound 43] (Ac-WDEFDASIEEVNRRIEESLRRIEESDRRLEEVEAAAKK(Succinyl(4-O-cholesteryl))-NH2)	12200	16.1
Ac-FDEEISQVNEKINQSLAFIRKSDELLHNVNAGKSTTEAAAKK(Succinyl(4-O-cholesteryl))-NH2 [Compound 26]	> 100000	1.35
